Calls of active or inactive are those of the source.
Columns and labels:
Tumor necrosis factor = Tumor necrosis factor (Homo sapiens, UniProt P01375); experiment: analog potency on TNFa NF-kB signaling – cell-based, revised, SAR follow-up (AID 2337); format: functional
[1] = target: T1, Nucleotide-binding oligomerization domain-containing protein 1 (Homo sapiens, UniProt Q9Y239); experiment: blockers of NOD1 pathway activity – revised, SAR follow-up (AID 2333); format: functional
T1 sequence (Q9Y239 whole entry): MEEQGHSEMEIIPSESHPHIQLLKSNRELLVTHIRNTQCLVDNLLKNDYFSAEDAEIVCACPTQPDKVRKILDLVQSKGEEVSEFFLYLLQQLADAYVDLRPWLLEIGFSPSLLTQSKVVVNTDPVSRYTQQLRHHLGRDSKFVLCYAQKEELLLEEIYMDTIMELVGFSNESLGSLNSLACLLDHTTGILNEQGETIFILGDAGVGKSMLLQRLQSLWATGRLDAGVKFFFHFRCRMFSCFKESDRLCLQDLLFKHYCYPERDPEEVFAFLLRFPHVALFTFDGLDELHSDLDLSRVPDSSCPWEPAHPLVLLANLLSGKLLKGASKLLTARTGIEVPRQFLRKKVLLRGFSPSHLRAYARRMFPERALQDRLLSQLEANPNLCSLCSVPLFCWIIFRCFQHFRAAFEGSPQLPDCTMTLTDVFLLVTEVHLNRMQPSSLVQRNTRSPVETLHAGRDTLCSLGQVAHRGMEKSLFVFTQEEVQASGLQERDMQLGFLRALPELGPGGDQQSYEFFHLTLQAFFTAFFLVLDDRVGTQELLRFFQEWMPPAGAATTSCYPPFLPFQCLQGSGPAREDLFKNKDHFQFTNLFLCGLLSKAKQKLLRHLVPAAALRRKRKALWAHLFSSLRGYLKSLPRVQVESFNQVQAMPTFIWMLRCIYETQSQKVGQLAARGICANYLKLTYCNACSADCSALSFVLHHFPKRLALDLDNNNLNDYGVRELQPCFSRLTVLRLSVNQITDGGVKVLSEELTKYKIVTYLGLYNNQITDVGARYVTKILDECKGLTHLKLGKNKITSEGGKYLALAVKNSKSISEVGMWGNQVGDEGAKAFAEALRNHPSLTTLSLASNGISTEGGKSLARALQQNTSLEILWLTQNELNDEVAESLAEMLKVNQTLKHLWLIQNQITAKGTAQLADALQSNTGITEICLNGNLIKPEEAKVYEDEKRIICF

HEK293 = experiment: cells; settings: Homo sapiens
[2] = viability of uninfected HEp-2 cells – cell-based, HTS, cytotoxicity control for RSV inhibitor project, dose response (AID 2410); format: functional; settings: human respiratory syncytial virus
Vero = experiment: cells; format: functional, cell-based; settings: Chlorocebus sabaeus
[3] = decrease of insulin promoter-GFP reporter – imaging, high-content screening, mouse beta cells (AID 1628); format: functional; settings: MIN6
[4] = MIN6 cell viability loss – mouse insulinoma, cytotoxicity control, dose response (AID 2122); format: functional;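 further: confirmatory high-throughput counterscreen run to flag cytotoxic compounds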
Beta-galactosidase = Beta-galactosidase (Escherichia coli, UniProt Q8VNN2); experiment: PubChem AID 485352; format: functional
Chain of Beta-galactosidase (Q8VNN2 whole entry): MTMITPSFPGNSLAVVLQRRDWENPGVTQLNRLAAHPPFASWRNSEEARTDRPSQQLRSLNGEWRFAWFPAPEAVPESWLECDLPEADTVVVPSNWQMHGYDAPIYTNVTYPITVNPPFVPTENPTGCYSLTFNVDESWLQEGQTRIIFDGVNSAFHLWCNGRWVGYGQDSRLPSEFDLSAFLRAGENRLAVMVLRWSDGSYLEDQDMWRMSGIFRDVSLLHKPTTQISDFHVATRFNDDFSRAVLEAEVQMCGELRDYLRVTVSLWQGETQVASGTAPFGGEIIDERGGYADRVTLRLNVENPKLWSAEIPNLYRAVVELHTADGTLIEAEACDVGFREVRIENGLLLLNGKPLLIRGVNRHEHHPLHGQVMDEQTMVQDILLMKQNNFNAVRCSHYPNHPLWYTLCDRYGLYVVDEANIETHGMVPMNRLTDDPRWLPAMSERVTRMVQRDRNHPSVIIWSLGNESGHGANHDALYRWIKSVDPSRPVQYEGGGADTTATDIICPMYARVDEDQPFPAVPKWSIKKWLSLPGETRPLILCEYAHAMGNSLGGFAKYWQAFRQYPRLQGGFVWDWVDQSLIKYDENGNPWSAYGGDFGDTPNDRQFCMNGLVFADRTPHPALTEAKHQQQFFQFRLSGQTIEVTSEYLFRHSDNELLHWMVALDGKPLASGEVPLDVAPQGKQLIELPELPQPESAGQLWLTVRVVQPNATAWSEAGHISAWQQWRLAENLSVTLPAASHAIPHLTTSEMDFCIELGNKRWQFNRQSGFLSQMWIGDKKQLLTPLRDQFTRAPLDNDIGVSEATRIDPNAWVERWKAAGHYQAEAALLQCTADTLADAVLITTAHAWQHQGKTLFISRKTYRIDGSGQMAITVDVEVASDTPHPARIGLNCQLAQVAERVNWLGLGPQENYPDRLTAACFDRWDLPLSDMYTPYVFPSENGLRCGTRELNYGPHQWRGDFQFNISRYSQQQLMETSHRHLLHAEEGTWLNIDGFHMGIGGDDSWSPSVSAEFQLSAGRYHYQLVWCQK

[5] = target: T2, Type-1 angiotensin II receptor (Homo sapiens, UniProt P30556); experiment: antagonism of angiotensin II type 1 receptor – cell-based, uHTS hits, selectivity assay for APJ receptor antagonist project, dose response (AID 463214); format: functional;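 further: antagonist potency against angiotensin II stimulated AT1 response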
T2 sequence (P30556 whole entry): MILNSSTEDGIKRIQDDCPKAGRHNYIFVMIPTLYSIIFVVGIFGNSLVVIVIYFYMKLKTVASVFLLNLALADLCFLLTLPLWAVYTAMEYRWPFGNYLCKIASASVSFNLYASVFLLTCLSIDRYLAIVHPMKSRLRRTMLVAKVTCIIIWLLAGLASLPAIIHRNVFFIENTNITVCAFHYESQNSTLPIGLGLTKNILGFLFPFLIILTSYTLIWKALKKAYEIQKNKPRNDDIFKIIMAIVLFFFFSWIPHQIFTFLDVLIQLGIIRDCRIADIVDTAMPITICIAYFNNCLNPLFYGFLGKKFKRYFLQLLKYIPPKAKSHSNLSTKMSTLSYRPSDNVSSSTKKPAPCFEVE

Fatty acid synthase [6] = target: T3, Fatty acid synthase (Homo sapiens, UniProt P49327); experiment: inhibition of human FAS-TE enzyme activity – biochemical, endpoint fluorescence intensity, uHTS hits, dose response (AID 624327); format: functional;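 further: fluorescence from hydrolysis of an O-methyl fluorescein acyl ester substrate by the enzyme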
T3 sequence (P49327 whole entry): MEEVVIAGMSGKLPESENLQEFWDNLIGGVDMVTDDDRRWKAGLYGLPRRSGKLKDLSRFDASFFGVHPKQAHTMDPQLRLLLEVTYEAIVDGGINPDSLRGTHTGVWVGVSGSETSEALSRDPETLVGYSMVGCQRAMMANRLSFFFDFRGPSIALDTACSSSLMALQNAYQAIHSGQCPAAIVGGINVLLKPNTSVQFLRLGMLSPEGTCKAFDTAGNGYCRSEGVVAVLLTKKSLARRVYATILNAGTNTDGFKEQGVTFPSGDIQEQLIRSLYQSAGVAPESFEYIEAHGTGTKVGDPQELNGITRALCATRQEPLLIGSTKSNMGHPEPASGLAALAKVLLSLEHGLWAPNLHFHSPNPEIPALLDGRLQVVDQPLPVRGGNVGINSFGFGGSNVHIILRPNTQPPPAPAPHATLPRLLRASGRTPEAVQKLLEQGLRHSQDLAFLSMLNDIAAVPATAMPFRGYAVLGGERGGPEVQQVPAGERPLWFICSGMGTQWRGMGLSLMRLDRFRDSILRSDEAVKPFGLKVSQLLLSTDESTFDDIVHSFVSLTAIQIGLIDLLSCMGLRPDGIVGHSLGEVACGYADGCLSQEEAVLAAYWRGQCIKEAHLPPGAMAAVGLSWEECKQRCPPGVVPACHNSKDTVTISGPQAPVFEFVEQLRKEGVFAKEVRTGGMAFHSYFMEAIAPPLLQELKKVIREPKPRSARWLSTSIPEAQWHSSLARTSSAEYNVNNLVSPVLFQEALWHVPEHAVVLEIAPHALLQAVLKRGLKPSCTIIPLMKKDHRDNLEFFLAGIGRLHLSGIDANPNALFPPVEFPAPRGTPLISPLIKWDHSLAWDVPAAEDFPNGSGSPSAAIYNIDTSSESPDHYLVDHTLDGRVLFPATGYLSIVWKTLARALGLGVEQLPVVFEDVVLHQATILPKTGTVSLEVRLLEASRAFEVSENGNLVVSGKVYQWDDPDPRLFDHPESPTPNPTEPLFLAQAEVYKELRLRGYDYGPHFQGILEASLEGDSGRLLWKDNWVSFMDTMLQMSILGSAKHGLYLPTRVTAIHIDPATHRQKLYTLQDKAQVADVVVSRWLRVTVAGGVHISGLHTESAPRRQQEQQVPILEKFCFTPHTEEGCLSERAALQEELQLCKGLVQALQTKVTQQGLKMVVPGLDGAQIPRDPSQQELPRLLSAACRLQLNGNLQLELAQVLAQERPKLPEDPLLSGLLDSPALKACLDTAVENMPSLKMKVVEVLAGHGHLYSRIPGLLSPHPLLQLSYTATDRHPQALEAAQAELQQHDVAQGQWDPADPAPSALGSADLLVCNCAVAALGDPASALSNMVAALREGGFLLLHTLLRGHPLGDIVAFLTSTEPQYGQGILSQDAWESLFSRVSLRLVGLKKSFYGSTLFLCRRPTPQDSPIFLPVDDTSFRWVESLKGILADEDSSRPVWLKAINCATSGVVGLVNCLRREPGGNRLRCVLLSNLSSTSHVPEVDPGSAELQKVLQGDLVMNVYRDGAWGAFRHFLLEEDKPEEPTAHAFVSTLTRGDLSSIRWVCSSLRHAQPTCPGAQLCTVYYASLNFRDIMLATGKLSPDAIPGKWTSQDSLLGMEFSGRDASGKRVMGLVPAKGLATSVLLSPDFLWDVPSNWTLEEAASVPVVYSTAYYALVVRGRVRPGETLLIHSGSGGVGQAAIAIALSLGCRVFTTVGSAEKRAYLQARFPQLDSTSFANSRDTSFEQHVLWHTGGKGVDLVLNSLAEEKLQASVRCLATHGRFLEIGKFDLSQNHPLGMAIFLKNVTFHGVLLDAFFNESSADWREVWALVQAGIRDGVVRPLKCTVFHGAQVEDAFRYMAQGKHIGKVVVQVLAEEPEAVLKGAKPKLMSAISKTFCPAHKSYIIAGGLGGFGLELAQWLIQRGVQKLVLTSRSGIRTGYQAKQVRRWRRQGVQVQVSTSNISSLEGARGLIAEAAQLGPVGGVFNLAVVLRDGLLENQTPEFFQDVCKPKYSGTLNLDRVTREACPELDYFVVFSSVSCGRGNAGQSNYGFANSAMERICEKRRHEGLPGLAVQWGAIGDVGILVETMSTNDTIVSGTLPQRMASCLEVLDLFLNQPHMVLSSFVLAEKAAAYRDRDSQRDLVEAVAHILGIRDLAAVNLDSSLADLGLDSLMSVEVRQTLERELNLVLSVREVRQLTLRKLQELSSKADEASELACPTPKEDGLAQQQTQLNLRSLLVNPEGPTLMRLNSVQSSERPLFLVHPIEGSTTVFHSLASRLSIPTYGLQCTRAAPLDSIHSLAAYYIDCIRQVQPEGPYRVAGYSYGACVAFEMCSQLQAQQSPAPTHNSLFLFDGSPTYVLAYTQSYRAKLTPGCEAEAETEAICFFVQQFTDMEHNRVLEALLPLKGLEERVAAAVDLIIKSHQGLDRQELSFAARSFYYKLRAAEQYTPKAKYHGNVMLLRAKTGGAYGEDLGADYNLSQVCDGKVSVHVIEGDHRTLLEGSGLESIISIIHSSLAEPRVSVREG

Fatty acid synthase [7] = target: T3, Fatty acid synthase; experiment: inhibition of human FAS-TE enzyme activity – biochemical, kinetic fluorescence intensity, dose response (AID 624326); format: functional;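 further: rate of fluorescence rise from hydrolysis of a fluorogenic O-methyl fluorescein ester substrate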
Exodeoxyribonuclease V = target: T4, Exodeoxyribonuclease V (Escherichia coli (strain K12), UniProt P04993+P07648+P08394); experiment: RecBCD inhibition via phage-restricted bacterial growth – absorbance, V66 E. coli, mutant T4 phage, counter-screen for AddAB inhibitor project, dose response (AID 492957); format: functional, cell-based, Escherichia coli str. K-12 substr. MG1655
T4 sequence (P04993 whole entry): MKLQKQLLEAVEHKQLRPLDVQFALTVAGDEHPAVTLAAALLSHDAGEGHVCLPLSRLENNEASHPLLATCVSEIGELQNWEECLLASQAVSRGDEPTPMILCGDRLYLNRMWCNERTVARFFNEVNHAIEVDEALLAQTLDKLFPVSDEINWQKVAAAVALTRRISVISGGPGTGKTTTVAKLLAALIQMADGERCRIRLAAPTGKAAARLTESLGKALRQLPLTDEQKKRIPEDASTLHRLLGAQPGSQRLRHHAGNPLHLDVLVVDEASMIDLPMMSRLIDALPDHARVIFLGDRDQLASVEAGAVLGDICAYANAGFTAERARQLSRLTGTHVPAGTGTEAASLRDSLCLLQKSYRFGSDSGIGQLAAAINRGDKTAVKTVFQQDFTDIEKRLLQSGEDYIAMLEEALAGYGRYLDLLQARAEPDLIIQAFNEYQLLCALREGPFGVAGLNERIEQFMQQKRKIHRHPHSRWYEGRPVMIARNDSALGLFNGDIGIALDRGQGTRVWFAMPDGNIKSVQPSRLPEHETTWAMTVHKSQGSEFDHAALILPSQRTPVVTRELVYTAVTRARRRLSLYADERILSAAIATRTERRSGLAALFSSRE
T4 sequence (P07648 whole entry): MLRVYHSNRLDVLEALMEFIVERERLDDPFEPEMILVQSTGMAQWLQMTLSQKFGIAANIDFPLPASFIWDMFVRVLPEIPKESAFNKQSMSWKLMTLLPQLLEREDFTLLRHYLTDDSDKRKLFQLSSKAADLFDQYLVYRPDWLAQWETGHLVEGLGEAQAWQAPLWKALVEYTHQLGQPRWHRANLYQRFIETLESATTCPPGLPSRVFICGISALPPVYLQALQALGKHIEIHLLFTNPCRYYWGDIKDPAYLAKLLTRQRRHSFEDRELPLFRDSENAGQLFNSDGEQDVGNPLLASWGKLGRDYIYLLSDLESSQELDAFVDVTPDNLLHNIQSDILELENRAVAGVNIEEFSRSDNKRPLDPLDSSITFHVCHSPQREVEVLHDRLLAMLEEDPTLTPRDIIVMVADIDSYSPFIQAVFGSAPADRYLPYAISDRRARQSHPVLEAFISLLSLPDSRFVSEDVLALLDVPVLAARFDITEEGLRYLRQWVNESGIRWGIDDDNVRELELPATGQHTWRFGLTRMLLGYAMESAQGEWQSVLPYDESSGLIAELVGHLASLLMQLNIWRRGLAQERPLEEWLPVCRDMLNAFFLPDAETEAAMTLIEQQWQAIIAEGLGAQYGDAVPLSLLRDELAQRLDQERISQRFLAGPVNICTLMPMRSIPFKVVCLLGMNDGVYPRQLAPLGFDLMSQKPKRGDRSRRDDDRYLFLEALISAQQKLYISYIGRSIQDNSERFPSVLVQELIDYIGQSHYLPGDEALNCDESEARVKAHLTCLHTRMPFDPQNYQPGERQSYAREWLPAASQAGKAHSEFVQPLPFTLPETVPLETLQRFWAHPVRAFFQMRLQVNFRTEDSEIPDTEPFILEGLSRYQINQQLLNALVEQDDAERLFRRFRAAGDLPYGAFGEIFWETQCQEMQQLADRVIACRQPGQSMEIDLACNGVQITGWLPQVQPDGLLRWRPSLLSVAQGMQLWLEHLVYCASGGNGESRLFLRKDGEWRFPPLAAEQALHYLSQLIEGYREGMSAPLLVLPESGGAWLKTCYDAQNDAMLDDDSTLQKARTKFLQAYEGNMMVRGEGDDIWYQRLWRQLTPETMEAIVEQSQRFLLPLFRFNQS
T4 sequence (P08394 whole entry): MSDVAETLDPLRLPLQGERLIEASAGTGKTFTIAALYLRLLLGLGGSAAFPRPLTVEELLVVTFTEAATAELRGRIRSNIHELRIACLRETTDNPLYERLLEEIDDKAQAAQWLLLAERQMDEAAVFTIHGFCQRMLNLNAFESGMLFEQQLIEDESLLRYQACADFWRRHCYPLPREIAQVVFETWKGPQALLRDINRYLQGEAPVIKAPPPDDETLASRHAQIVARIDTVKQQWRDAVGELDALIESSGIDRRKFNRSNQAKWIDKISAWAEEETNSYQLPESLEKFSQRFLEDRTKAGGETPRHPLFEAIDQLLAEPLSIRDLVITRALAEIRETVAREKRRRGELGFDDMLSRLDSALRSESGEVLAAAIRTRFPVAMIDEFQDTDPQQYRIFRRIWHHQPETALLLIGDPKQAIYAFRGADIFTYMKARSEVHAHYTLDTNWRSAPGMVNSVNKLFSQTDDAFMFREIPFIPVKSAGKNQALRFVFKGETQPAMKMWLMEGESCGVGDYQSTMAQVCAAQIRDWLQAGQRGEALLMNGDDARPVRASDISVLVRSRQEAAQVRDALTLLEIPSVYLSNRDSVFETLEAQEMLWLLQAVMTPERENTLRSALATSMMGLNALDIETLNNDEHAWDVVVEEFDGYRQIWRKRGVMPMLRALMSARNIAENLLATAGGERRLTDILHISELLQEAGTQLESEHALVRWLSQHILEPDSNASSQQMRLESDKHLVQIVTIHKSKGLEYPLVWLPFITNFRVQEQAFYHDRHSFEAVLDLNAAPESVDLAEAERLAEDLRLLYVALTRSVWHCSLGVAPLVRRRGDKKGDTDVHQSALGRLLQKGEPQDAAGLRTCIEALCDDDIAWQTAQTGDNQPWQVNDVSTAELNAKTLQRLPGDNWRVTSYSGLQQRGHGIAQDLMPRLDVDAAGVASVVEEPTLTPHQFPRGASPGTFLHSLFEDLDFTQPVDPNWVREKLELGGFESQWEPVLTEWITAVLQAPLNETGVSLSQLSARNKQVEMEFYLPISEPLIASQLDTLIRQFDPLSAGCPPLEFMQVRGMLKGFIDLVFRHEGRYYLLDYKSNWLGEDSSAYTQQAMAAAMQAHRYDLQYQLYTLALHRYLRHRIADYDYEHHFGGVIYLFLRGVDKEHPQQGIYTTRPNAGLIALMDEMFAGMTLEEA

[8] = Counterscreen for AddAB inhibitors: absorbance-based bacterial cell-based high throughput dose response assay for inhibitors of bacterial viability. [Related pubchem assays (depositor defined):AID435030, AID449728, AID449731, AID488942, AID488955, AID488956]; format: functional

Chain of Tumor necrosis factor (P01375 whole entry, the tested form may be a part): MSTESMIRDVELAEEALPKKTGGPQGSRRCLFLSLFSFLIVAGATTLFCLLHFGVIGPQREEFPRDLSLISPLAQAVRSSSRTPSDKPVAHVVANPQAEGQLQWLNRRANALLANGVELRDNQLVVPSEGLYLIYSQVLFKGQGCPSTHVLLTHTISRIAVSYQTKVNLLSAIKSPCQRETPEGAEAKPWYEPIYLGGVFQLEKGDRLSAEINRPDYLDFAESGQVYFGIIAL

## CCCOc1ccc(C=NN=C(S)Nc2ccccc2[N+](=O)[O-])c(O)c1
Tumor necrosis factor
  IC50: 0.88 µM (active)
[1]
  IC50: 7.73 µM (active)
HEK293
  IC50: > 20 µM (inactive)

## Nc1ccc(C(=O)OCCCc2nc3cc4ccccc4cc3[nH]2)cc1
[2]
  CC50: 46 µM (active)
Vero
  IC50: > 25 µM (active)

## Brc1ccc2[nH]c3c(c2c1)CCC3
Vero
  IC50: > 25 µM (active)

## c1ccc(N2CCN(Cc3ccnc4ccccc34)CC2)cc1
[3]
  IC50: 3.42 µM (active)
[4]
  IC50: 2.84 µM (active)

## O=C(CCc1ccccc1)OCC(=O)c1cccc([N+](=O)[O-])c1
Beta-galactosidase
  EC50: > 40 µM (inactive)
[5]
  IC50: 19.2 µM (active)
Fatty acid synthase [6]
  IC50: 11.3 µM (active)
Fatty acid synthase [7]
  IC50: 9.4 µM (active)

## C(#Cc1ccccc1)C[N+]1(CC#Cc2cccc3ccccc23)CCOCC1
[3]
  IC50: 2.29 µM (active)
[4]
  IC50: 2.19 µM (active)

## O=C(COC(=O)c1cc2ccccc2oc1=O)c1cccc([N+](=O)[O-])c1
Beta-galactosidase
  EC50: > 40 µM (inactive)
[5]
  IC50: > 40 µM (not active)

## COc1cccc(N2CC(C)Cn3c2nc2c3c(=O)[nH]c(=O)n2C)c1 (stereo not given)
Beta-galactosidase
  EC50: > 40 µM (inactive)
[5]
  IC50: > 40 µM (not active)

## NC(=O)c1ccsc1NC(=O)COC(=O)c1ccc([N+](=O)[O-])o1
Exodeoxyribonuclease V
  IC50: > 119 µM (inactive)
[8]
  IC50: > 39.5 µM (inactive)

Source: ChEMBL document CHEMBL1201862, “PubChem BioAssay data set” (2004)
